Test results taken from patent US20120122860A1, “SOLID FORMS OF SULFONAMIDES AND AMINO ACIDS” (Plexxikon, Inc., priority 2009, published 2012).

Key:
Kit = Kit (Homo sapiens, UniProt P10721); experiment: Kinase activity assay, Kit
B-Raf = B-Raf (Homo sapiens, UniProt P15056); experiment: Kinase activity assay, B-Raf; format: biochemical; settings: read-out: activity toward kinase B-Raf, IC50
C-Raf = C-Raf (Homo sapiens, UniProt P04049); experiment: Kinase activity assay, C-Raf
Src = Src (Homo sapiens, UniProt P12931); experiment: Kinase activity assay, Src
B-Raf V600E = B-Raf V600E (Homo sapiens, UniProt P15056, V600E); experiment: Kinase activity assay, B-Raf V600E; format: biochemical; settings: read-out: activity toward kinase B-Raf V600E, IC50
TEC = biological target: T1, TEC (Homo sapiens, UniProt P42680); experiment: Kinase activity assay, TEC
T1 sequence (P42680 1-631): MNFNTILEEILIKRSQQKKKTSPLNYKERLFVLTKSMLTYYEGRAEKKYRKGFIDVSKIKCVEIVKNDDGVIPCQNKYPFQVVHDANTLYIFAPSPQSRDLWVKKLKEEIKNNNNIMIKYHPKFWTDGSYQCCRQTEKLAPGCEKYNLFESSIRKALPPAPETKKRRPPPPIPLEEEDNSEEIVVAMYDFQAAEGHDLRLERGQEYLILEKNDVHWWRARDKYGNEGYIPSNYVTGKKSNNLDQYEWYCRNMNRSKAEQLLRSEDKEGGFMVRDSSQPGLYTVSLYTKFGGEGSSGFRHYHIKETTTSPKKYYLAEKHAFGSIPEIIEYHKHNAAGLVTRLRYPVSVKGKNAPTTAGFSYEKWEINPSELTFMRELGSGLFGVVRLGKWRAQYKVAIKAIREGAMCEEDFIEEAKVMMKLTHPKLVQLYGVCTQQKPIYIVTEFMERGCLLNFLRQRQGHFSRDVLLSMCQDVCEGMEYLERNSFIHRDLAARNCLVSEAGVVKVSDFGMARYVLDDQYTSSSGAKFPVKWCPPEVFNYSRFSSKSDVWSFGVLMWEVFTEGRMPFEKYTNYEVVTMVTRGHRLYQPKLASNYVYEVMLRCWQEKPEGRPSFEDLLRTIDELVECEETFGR

Kdr = Kdr (Homo sapiens, UniProt P35968); experiment: Kinase activity assay, Kdr
Fms = Fms (Homo sapiens, UniProt P07333); experiment: Kinase activity assay, Fms
MAP4K4 = MAP4K4 (Homo sapiens, UniProt O95819); experiment: Kinase activity assay, MAP4K4
A-Raf = biological target: T2, A-Raf (Homo sapiens, UniProt P10398); experiment: Kinase activity assay, A-Raf
T2 sequence (P10398 1-606): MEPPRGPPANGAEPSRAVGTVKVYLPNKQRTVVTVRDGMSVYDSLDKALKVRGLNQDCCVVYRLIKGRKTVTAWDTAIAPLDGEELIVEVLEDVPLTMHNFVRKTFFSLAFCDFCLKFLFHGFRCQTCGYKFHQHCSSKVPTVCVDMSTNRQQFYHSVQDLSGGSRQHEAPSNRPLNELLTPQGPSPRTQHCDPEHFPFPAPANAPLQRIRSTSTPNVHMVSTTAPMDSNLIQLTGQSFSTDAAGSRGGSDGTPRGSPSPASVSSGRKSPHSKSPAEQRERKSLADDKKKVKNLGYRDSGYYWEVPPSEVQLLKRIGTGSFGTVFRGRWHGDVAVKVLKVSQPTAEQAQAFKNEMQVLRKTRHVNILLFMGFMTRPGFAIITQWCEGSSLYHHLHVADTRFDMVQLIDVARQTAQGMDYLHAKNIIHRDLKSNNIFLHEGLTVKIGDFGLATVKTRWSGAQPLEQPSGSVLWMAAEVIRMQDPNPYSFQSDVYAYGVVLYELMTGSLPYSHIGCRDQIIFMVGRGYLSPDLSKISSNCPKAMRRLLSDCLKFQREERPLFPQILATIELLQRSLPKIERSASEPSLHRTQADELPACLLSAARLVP

Measured: IC50

Sequence of Fms (P07333 20-972): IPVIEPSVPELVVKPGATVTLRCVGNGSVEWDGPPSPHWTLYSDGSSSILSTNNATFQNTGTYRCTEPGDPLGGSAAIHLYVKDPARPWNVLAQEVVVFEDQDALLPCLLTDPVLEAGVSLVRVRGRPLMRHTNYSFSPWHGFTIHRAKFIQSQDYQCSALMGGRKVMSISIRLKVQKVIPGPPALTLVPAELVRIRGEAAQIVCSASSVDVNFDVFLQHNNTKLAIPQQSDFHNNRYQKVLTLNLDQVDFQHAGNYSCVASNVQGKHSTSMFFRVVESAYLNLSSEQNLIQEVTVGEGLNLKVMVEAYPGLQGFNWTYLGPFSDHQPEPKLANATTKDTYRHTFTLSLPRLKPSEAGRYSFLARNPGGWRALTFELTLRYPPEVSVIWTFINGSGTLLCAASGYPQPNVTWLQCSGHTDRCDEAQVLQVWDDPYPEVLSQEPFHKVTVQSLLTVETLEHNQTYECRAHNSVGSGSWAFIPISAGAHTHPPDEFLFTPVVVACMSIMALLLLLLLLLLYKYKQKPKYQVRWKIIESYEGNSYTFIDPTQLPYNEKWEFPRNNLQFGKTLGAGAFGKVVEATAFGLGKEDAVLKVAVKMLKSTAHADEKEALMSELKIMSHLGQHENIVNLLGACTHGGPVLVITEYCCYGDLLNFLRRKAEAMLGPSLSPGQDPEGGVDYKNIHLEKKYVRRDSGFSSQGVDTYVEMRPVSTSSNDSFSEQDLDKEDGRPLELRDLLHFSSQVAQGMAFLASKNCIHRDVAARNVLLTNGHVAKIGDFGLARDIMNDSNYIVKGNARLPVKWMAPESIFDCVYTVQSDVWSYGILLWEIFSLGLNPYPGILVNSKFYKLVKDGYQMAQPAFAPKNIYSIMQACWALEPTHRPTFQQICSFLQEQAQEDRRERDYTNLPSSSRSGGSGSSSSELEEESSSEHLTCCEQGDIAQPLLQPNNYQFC
Sequence of MAP4K4 (O95819 whole entry): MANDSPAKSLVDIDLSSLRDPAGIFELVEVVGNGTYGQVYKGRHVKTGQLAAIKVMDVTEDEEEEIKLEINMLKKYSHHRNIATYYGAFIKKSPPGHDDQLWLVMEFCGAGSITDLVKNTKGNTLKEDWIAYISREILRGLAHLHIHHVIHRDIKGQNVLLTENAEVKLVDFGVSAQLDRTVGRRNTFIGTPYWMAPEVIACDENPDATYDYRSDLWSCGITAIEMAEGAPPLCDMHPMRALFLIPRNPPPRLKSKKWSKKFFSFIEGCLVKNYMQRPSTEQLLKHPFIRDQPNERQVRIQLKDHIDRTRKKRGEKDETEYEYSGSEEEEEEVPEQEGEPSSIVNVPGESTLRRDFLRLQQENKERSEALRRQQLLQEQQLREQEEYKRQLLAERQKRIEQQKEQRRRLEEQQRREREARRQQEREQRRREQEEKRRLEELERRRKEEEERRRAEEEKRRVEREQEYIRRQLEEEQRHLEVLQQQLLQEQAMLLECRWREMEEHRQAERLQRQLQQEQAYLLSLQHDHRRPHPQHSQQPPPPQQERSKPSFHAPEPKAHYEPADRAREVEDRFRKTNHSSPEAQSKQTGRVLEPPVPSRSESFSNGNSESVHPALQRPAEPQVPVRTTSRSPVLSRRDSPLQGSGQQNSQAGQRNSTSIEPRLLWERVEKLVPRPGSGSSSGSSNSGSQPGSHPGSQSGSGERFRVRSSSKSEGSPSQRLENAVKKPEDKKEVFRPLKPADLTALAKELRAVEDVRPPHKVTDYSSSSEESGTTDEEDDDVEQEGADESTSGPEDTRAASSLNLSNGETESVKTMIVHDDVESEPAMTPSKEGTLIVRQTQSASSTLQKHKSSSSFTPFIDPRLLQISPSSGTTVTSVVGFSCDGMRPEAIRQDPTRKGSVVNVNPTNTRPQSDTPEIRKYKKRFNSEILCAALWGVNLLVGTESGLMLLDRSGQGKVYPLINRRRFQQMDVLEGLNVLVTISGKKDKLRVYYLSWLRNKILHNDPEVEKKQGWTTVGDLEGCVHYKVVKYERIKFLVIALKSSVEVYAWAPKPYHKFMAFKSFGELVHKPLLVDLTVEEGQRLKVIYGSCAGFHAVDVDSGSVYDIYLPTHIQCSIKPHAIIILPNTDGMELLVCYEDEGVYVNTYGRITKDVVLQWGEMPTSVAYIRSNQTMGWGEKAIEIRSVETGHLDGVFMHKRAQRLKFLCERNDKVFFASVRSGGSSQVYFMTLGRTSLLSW
Sequence of Kit (P10721 26-976): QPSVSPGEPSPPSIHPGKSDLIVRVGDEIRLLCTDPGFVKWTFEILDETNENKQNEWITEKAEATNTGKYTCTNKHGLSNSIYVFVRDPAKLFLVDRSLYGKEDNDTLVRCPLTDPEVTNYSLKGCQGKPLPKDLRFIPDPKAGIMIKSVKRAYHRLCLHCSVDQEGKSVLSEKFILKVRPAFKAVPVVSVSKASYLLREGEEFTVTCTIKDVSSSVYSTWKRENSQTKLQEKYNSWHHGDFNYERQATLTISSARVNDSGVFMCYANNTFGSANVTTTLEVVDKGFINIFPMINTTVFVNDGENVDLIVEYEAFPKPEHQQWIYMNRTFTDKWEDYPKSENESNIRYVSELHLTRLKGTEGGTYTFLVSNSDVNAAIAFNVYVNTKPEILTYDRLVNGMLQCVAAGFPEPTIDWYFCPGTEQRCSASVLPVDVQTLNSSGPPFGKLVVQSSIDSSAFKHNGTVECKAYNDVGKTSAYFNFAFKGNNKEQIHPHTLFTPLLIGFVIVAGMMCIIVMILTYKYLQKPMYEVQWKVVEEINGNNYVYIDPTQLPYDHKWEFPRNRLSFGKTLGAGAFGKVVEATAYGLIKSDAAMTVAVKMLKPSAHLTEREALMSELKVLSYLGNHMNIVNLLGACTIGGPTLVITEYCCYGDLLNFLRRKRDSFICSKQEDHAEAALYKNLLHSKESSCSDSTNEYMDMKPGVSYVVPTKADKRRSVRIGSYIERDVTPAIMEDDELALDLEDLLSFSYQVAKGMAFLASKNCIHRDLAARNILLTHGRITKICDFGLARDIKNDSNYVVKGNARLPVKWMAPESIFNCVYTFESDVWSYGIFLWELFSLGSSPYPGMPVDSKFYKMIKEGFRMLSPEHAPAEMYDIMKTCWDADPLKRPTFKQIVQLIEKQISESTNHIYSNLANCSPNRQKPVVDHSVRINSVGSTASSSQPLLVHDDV
Sequence of B-Raf V600E (P15056 whole entry V600E): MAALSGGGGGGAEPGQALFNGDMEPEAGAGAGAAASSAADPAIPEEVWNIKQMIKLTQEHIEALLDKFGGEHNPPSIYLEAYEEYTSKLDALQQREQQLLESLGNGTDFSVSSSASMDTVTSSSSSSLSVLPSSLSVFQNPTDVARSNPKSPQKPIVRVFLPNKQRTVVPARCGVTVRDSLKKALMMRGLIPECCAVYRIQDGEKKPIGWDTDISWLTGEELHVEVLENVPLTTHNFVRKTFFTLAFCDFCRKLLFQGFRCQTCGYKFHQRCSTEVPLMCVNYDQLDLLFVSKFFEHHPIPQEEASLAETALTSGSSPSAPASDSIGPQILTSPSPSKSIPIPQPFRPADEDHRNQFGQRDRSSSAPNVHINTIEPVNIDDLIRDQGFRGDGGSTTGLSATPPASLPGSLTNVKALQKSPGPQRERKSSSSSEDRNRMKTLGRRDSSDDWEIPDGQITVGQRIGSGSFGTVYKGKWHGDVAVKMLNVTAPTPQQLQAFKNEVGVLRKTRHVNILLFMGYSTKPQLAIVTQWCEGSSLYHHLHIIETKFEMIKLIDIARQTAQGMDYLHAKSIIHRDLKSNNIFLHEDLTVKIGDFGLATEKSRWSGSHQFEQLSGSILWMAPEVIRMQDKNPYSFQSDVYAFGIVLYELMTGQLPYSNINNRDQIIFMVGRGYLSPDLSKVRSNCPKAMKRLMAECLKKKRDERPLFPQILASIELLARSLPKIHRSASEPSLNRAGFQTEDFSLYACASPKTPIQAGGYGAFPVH
Sequence of Src (P12931 whole entry): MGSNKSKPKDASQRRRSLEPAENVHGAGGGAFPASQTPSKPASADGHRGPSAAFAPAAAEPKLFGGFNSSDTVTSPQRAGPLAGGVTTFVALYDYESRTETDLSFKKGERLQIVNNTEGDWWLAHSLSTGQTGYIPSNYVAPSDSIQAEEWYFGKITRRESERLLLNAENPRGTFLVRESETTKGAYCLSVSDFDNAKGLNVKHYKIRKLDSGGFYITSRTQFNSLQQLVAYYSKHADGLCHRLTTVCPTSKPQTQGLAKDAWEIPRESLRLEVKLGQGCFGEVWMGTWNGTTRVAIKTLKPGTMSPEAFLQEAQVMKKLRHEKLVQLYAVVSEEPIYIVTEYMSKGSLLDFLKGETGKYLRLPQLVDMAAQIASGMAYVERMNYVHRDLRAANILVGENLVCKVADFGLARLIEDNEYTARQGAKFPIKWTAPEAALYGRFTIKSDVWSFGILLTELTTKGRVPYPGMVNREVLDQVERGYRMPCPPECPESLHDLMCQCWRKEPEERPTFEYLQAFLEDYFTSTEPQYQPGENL
Sequence of B-Raf (P15056 whole entry): as the sequence (P15056 whole entry V600E) above, with E600V counted along it

O=C(c1c(F)ccc(NS(=O)(=O)c2c(F)cccc2F)c1F)c1c[nH]c2ncc(Cl)cc12 [P-2003, N-[3-(5-Chloro-1H-pyrrolo[2,3-b]pyridine-3-carbonyl)-2,4-difluoro-phenyl]-2,6-difluoro-benzenesulfonamide]
not listed: A-Raf
≤ 10 µM: all other assays above

N#Cc1cnc2[nH]cc(C(=O)c3c(F)ccc(NS(=O)(=O)c4ccc(F)cc4F)c3F)c2c1 [P-2030, N-[3-(5-Cyano-1H-pyrrolo[2,3-b]pyridine-3-carbonyl)-2,4-difluoro-phenyl]-2,4-difluoro-benzenesulfonamide]
not listed: Fms | A-Raf
≤ 10 µM: all other assays above

COc1ccnc2[nH]cc(C(=O)c3c(F)ccc(NS(=O)(=O)c4c(F)cccc4F)c3F)c12 [P-2031, N-[2,4-Difluoro-3-(4-methoxy-1H-pyrrolo[2,3-b]pyridine-3-carbonyl)-phenyl]-2,6-difluoro-benzenesulfonamide]
not listed: Fms | A-Raf
≤ 10 µM: all other assays above

N#Cc1cnc2[nH]cc(C(=O)c3c(F)ccc(NS(=O)(=O)c4ccccc4)c3F)c2c1 [P-2046, N-[3-(5-Cyano-1H-pyrrolo[2,3-b]pyridine-3-carbonyl)-2,4-difluoro-phenyl]-benzenesulfonamide]
not listed: Kdr | Fms | MAP4K4
≤ 10 µM: all other assays above

COc1ccnc2[nH]cc(C(=O)c3c(F)ccc(NS(=O)(=O)c4ccc(C(F)(F)F)cc4)c3F)c12 [P-2047, N-[2,4-Difluoro-3-(4-methoxy-1H-pyrrolo[2,3-b]pyridine-3-carbonyl)-phenyl]-4-trifluoromethyl-benzenesulfonamide]
not listed: Kdr | Fms | MAP4K4
≤ 10 µM: all other assays above

CCCS(=O)(=O)Nc1ccc(F)c(C(=O)c2c[nH]c3ncc(CCCN4CCCC4)cc23)c1F [P-2248, Propane-1-sulfonic acid {2,4-difluoro-3-[5-(3-pyrrolidin-1-yl-propyl)-1H-pyrrolo[2,3-b]pyridine-3-carbonyl]-phenyl}-amide]
≤ 10 µM: A-Raf | B-Raf | C-Raf | B-Raf V600E | TEC | Kdr

CCCS(=O)(=O)Nc1ccc(F)c(C(=O)c2c[nH]c3ncc(CO)cc23)c1F [P-2250, Propane-1-sulfonic acid [2,4-difluoro-3-(5-hydroxymethyl-1H-pyrrolo[2,3-b]pyridine-3-carbonyl)-phenyl]-amide]
≤ 10 µM: A-Raf | B-Raf | C-Raf | B-Raf V600E | TEC | Kdr

CCCS(=O)(=O)Nc1ccc(F)c(C(=O)c2c[nH]c3ncc(CN4CCN(C)CC4)cc23)c1F [P-2257, Propane-1-sulfonic acid {2,4-difluoro-3-[5-(4-methyl-piperazin-1-ylmethyl)-1H-pyrrolo[2,3-b]pyridine-3-carbonyl]-phenyl}-amide]
≤ 10 µM: A-Raf | B-Raf | C-Raf | B-Raf V600E | TEC

C#Cc1ccnc2[nH]cc(C(=O)c3c(F)ccc(NS(=O)(=O)CCC)c3F)c12 [P-2261, Propane-1-sulfonic acid [3-(4-ethynyl-1H-pyrrolo[2,3-b]pyridine-3-carbonyl)-2,4-difluoro-phenyl]-amide]
not listed: Kit | Fms | MAP4K4
≤ 10 µM: all other assays above

CS(=O)(=O)Nc1ccc(F)c(C(=O)c2c[nH]c3nccc(C#N)c23)c1F [P-2292, N-[3-(4-Cyano-1H-pyrrolo[2,3-b]pyridine-3-carbonyl)-2,4-difluoro-phenyl]-methanesulfonamide]
≤ 10 µM: A-Raf | C-Raf | B-Raf V600E | TEC | Kdr

CCC(C)S(=O)(=O)Nc1ccc(F)c(C(=O)c2c[nH]c3ncc(Cl)cc23)c1F (stereo not drawn) [P-2310, Butane-2-sulfonic acid [3-(5-chloro-1H-pyrrolo[2,3-b]pyridine-3-carbonyl)-2,4-difluoro-phenyl]-amide]
not listed: Fms | A-Raf
≤ 10 µM: all other assays above

COc1cnc2[nH]cc(C(=O)c3c(F)ccc(NS(=O)(=O)C4CCCCC4)c3F)c2c1 [P-2355, Cyclohexanesulfonic acid [2,4-difluoro-3-(5-methoxy-1H-pyrrolo[2,3-b]pyridine-3-carbonyl)-phenyl]-amide]
not listed: Fms | A-Raf
≤ 10 µM: all other assays above

COc1cnc2[nH]cc(C(=O)c3c(F)ccc(NS(=O)(=O)C4CCCC4)c3F)c2c1 [P-2356, Cyclopentanesulfonic acid [2,4-difluoro-3-(5-methoxy-1H-pyrrolo[2,3-b]pyridine-3-carbonyl)-phenyl]-amide]
not listed: Fms | A-Raf
≤ 10 µM: all other assays above

O=C(c1c(F)ccc(NS(=O)(=O)C2CCCCC2)c1F)c1c[nH]c2ncc(Cl)cc12 [P-2357, Cyclohexanesulfonic acid [3-(5-chloro-1H-pyrrolo[2,3-b]pyridine-3-carbonyl)-2,4-difluoro-phenyl]-amide]
not listed: Fms | A-Raf
≤ 10 µM: all other assays above

Cc1cnc2[nH]cc(C(=O)c3cc(NS(=O)(=O)C4CCCCC4)ccc3F)c2c1 [P-2443, Cyclohexanesulfonic acid [4-fluoro-3-(5-methyl-1H-pyrrolo[2,3-b]pyridine-3-carbonyl)-phenyl]-amide]
≤ 10 µM: Kit | TEC | Kdr | Fms | MAP4K4

CS(=O)(=O)c1cccc(-c2cnc3[nH]cc(C(=O)c4cc(NS(=O)(=O)C5CCCC5)ccc4F)c3c2)c1 [P-2445, Cyclopentanesulfonic acid {4-fluoro-3-[5-(3-methanesulfonyl-phenyl)-1H-pyrrolo[2,3-b]pyridine-3-carbonyl]-phenyl}-amide]
not listed: A-Raf
≤ 10 µM: all other assays above
